Consider three compounds from patent US9956319B2, “Compositions useful as antibiofilm or antimicrobial agents and methods using same” (BAYLOR COLLEGE OF MEDICINE, priority 2012, dated 2018).

As a reminder, the zone of inhibition is the size of the clear area around the sample on an inoculated plate.

Assay [1] concerns MRSE. Nature of the assay: Zones of inhibition of impregnated catheter segments, modified Kirby-Bauer method. In kind it is cell-based, Staphylococcus epidermidis. Here is the method:
(§1) To evaluate the antimicrobial activity of central venous catheters treated with α-lipoic acid or its combination with gentamicin, segments of 7 French triple lumen polyurethane central venous catheters were impregnated with α-lipoic acid, gentamicin, or the combination of lipoic acid and gentamicin using the same patented method described in Example 1 with 50 mg/ml of each agent (for the final solution volume). After the impregnation process and drying, zones of inhibition were performed on one-centimeter segments according to a modified Kirby-Bauer method against MSSE, MRSE, MRSA, K. pneumoniae, E. coli, P. mirabilis, Pseudomonas aeruginosa, and Candida albicans. Each segment was half embedded in the center of a Muller-Hinton agar plate that had been previously inoculated with an individual organism. Prior to placing the catheter segments in agar, each organism was grown for 18 hours in TSB to a concentration of 0.5 McFarland (10^8 cfu/ml). A cotton swab was placed in the suspension and streaked across the surface of the Muller-Hinton agar plate to cover the entire plate. All plates were placed in a 37° C. incubator for 24 hours. Zones were measured in mm after the incubation period (Table 2).
(§2) To evaluate the antimicrobial activity of central venous catheters treated with α-lipoic acid or its combination with doxycycline, segments of 7 French triple lumen polyurethane central venous catheters were impregnated with doxycycline or the combinations of α-lipoic acid and doxycycline using the same patented method described in Example 1 (U.S. Pat. No. 6,589,591) with 50 mg/ml of each agent (for the final solution volume). After the impregnation process and drying, zones of inhibition were performed on one-centimeter segments according to a modified Kirby-Bauer method against MSSE, MRSE, MRSA, K. pneumoniae, E. coli, P. aeruginosa, P. mirabilis, and C. albicans as described in Example 2. Zones of inhibition were measured in mm after the incubation period (Table 3).
(§3) To evaluate the antimicrobial activity of central venous catheters treated with lipoamide or its combination with levofloxacin, segments of 7 French triple lumen polyurethane central venous catheters were impregnated with levofloxacin or the combinations of lipoamide and levofloxacin using the same patented method described in Example 1 (U.S. Pat. No. 6,589,591) with 100 mg/ml (final solution volume) of each agent. After the impregnation process and drying, zones of inhibition were performed on one-centimeter segments according to a modified Kirby-Bauer method against MSSE, MRSE, MRSA, vancomycin-resistant Enterococcus (VRE), K. pneumoniae, E. coli, P. aeruginosa, P. mirabilis, and C. albicans as described in Example 2. Zones of inhibition were measured in mm after the incubation period (Table 4).
as §3, with “doxycycline,” for “levofloxacin,”, “doxycycline” for “levofloxacin”, “5).” for “4).”
(§4) To evaluate the antimicrobial activity of central venous catheters treated with dihydrolipoic acid, segments of 7 French triple lumen polyurethane central venous catheters were impregnated with dihydrolipoic acid using the same patented method described in Example 1 (U.S. Pat. No. 6,589,591) with 25 mg/ml (final solution volume) of the agent. […]

Assay [2] has as its system MSSE. The assay is described as above. In kind it is cell-based, Staphylococcus epidermidis. Here is the method: as §1, §2, §3
as §3, with “doxycycline,” for “levofloxacin,”, “doxycycline” for “levofloxacin”, “5).” for “4).”
as §4

Assay [3] has as its system MRSA. Described as above. Type of assay: cell-based, Staphylococcus aureus. As to the method: as §1, §2, §3
as §3, with “doxycycline,” for “levofloxacin,”, “doxycycline” for “levofloxacin”, “5).” for “4).”
as §4

Assay [4] deals with vancomycin-resistant Enterococcus (VRE). The assay is described as above. In kind it is cell-based. Here is the method: as §1
To evaluate the antimicrobial activity of central venous catheters treated with lipoamide or its combination with levofloxacin, segments of 7 French triple lumen polyurethane central venous catheters were impregnated with levofloxacin or the combinations of lipoamide and levofloxacin using the same patented method described in Example 1 (U.S. Pat. No. 6,589,591) with 100 mg/ml (final solution volume) of each agent. […] Zones of inhibition were measured in mm after the incubation period (Table 4).
To evaluate the antimicrobial activity of central venous catheters treated with lipoamide or its combination with doxycycline, segments of 7 French triple lumen polyurethane central venous catheters were impregnated with doxycycline or the combinations of lipoamide and doxycycline using the same patented method described in Example 1 (U.S. Pat. No. 6,589,591) with 100 mg/ml (final solution volume) of each agent. […] Zones of inhibition were measured in mm after the incubation period (Table 5).
To evaluate the antimicrobial activity of central venous catheters treated with dihydrolipoic acid, segments of 7 French triple lumen polyurethane central venous catheters were impregnated with dihydrolipoic acid using the same patented method described in Example 1 (U.S. Pat. No. 6,589,591) with 25 mg/ml (final solution volume) of the agent. […] Zones of inhibition were measured in mm after the incubation period (Table 6).

Assay [5] has as its system Candida albicans. The assay is described as above. In kind it is cell-based. As to the method: as §1, §2, §3
as §3, with “doxycycline,” for “levofloxacin,”, “doxycycline” for “levofloxacin”, “5).” for “4).”
as §4

For assay [6], the system named is Escherichia coli. The description is as above. Type of assay: cell-based. As to the method: as §1, §2, §3
as §3, with “doxycycline,” for “levofloxacin,”, “doxycycline” for “levofloxacin”, “5).” for “4).”
as §4

Assay [7] deals with Klebsiella pneumoniae II. The assay is described as above. Type of assay: cell-based. As to the method: as §1, §2, §3
as §3, with “doxycycline,” for “levofloxacin,”, “doxycycline” for “levofloxacin”, “5).” for “4).”
as §4

Assay [8] has as its system Klebsiella pneumoniae I. The description is as above. In kind it is cell-based. As to the method:
as §1, §2, §3
as §3, with “doxycycline,” for “levofloxacin,”, “doxycycline” for “levofloxacin”, “5).” for “4).”
as §4

The subject of assay [9] is Proteus mirabilis. The assay is described as above. In kind it is cell-based. Here is the method:
as §1, §2, §3
as §3, with “doxycycline,” for “levofloxacin,”, “doxycycline” for “levofloxacin”, “5).” for “4).”
as §4

Assay [10] relates to Pseudomonas aeruginosa. The description is as above. In kind it is cell-based. Here is the method: as §1, §2, §3
as §3, with “doxycycline,” for “levofloxacin,”, “doxycycline” for “levofloxacin”, “5).” for “4).”
as §4

Assay [11] relates to common pathogens. In words: Antimicrobial activity of impregnated catheters, overall conclusion from Tables 1-8. Type of assay: cell-based. The settings on record: conclusion in words from Tables 1-8.
Setting [12] is: catheter impregnated with 25 mg/ml of the agent.
[13] abbreviates: Staphylococcus epidermidis, catheter impregnated with 100 mg/ml of each agent.
The mark [14] stands for this setting: catheter impregnated with 100 mg/ml of each agent.
The mark [15] stands for this setting: Staphylococcus epidermidis, catheter impregnated with 50 mg/ml of each agent, 37° C., 24 hours.
[16] abbreviates: catheter impregnated with 50 mg/ml of each agent, 37° C., 24 hours.

As for `O=C(O)CCCCC(S)CCS` (centres unmarked) [Dihydrolipoic acid, 6,8-dimercaptooctanoic acid], the Zones of inhibition in assay [1] (setting [12]) is 21 mm; in assay [2] (setting [12]), 25 mm; in assay [3] (setting [12]), 24 mm; in assay [4] (setting [12]), 14 mm; in assay [5] (setting [12]), 13 mm; in [6] (setting [12]), 0 mm. The Zones of inhibition was 0 mm in [7] (Klebsiella pneumoniae II, catheter impregnated with 25 mg/ml of the agent); 0 mm in assay [8] (setting [12]); 0 mm in [9] (setting [12]); 11 mm in assay [10] (Pseudomonas aeroginosa, catheter impregnated with 25 mg/ml of the agent). Also, in assay [11], the intrinsic antimicrobial activity entry is “unexpected intrinsic antimicrobial activities”.
On to `NC(=O)CCCCC1CCSS1` (centres unmarked) [Lipoamide, lipoamide], for which the zone of inhibition at 100000 µg/mL was determined as 16 mm in assay [1] (setting [13]); 24 mm in assay [2] (setting [13]); 10 mm in assay [3] (Staphylococcus aureus, catheter impregnated with 100 mg/ml of each agent); 4 mm in assay [4] (Enterococcus, catheter impregnated with 100 mg/ml of each agent); 6 mm in [5] (setting [14]); 10 mm in assay [6] (setting [14]). The zone of inhibition at 100000 µg/mL amounted to 13 mm in assay [7] (Klebsiella pneumoniae II, catheter impregnated with 100 mg/ml of each agent); 12 mm in assay [8] (setting [14]); 13 mm in [9] (setting [14]); 18 mm in assay [10] (Pseudomonas aeruginosa, Pseudomonas aeroginosa, catheter impregnated with 100 mg/ml of each agent). In addition, the intrinsic antimicrobial activity entry in assay [11] is “unexpected intrinsic antimicrobial activities”.
On to `O=C(O)CCCCC1CCSS1` (centres unmarked) [Lipoic acid, 1,2-dithiolane-3-pentanoic acid], for which the zone of inhibition at 50000 µg/mL in assay [1] (setting [15]) came to 22 mm; in assay [2] (setting [15]), 32 mm; in [3] (Staphylococcus aureus, catheter impregnated with 50 mg/ml of each agent, 37° C., 24 hours), 13 mm; in [5] (setting [16]) it was 10 mm; in assay [6] (setting [16]) it was 12 mm; in [7] (Klebsiella pneumoniae, Klebsielle pneuminiae II, catheter impregnated with 50 mg/ml of each agent, 37° C., 24 hours) it was 18 mm. Besides, the zone of inhibition at 50000 µg/mL in assay [8] (setting [16]) amounted to 20 mm; in [9] (setting [16]) it was 12 mm; in [10] (Pseudomonas aeruginosa, catheter impregnated with 50 mg/ml of each agent, 37° C., 24 hours), 5 mm. In addition, in [11], the intrinsic antimicrobial activity entry was “unexpected intrinsic antimicrobial activities”.
